Measurements published in patent publication US11253524B2 (Gilead Sciences, Inc., priority 2018, dated 2022).
Marks after values point to notes of the source that are not given here.

Experiments:
[1] = In vivo BIC metabolism, plasma profile after oral [14C]BIC, rat; design: species or system Wistar Han Rat; conditions: rats, 0 to 168 hours post dose, ND = not detected
From the text: (§1) Metabolic pathways included hydroxylation, oxidative defluorination, direct glucuronidation, and oxidation followed by phase II conjugation. In the monkey, BIC was metabolized through the oxidative pathways to a greater extent compared to rat and human.

[2] = In vivo BIC metabolism, plasma profile after oral [14C]BIC, monkey; design: species or system Cynomolgus Monkey; conditions: monkeys, 0 to 72 hours post dose, ND = not detected
From the text: as §1

[3] = Phase 1 mass-balance study, [14C]bictegravir metabolite profiling in plasma, urine and feces; conditions: for % of administered dose in feces: feces pooled per individual subject, 0 to 144 hours postdose, average of 8 subjects; for % of plasma AUC0-72 h of total radioactivity: human plasma, AUC pool 0-72 h, single oral 100 mg [14C]bictegravir; for % of administered dose in urine: human urine pooled 0 to 96 hours postdose
From the text: A total of eight patents were enrolled. Subjects were healthy male nonsmokers, 18 to 45 years of age, inclusive, with a body mass index (BMI) from 19 to 30 kg/m2, inclusive, normal 12-lead electrocardiogram (ECG), normal renal function, no significant medical history, and in good general health, as determined by the investigator at the screening evaluation performed no more than 28 days prior to the scheduled first dose.
Treatment involved a single, oral dose followed by a 6- to 21-day sample collection period, the exact duration of which was based on recovery of radiolabeled drug. […] Following administration, the dosing container was rinsed twice, each rinse with approximately 50 mL of cranberry juice, and administered to the subject. The entire study drug solution and cranberry juice rinse (total of approximately 140 mL) was taken within a 10 minute window. […]
Urine: Metabolite profiling and quantitation in urine was performed with samples pooled for individual subjects within the period of 0 to 96 hours postdose.
Feces: Metabolite profiling and quantitation in feces was performed with the feces samples pooled for individual subjects.
Metabolite Quantitation: LC-Radio-chromatograms of the pooled plasma, urine, and feces samples were obtained.

OATP1B3 = molecular target: T1, OATP1B3 (Homo sapiens, UniProt Q9NPD5); assay: OATP1B3 inhibition assay using Fluo-3 as probe substrate, CHO cells; type: cell-based; design: expressed in transfected cells; host or cells: CHO cells; conditions: for Maximum inhibition at highest test conc. (% of control) / inhibition at 1 h, 100 µM: OATP1B3, Fluo-3, at 100 μM; for IC50 (μM): OATP1B3, Fluo-3, NIO = no interaction observed; for inhibition at 1 h, 100 µM: human, CHO cells transfected with human OATP1B3, pH 7.4, probe Fluo-3 (2 μM), read-out: Maximum inhibition at highest test conc. (% of control)
T1 sequence (Q9NPD5 1-702): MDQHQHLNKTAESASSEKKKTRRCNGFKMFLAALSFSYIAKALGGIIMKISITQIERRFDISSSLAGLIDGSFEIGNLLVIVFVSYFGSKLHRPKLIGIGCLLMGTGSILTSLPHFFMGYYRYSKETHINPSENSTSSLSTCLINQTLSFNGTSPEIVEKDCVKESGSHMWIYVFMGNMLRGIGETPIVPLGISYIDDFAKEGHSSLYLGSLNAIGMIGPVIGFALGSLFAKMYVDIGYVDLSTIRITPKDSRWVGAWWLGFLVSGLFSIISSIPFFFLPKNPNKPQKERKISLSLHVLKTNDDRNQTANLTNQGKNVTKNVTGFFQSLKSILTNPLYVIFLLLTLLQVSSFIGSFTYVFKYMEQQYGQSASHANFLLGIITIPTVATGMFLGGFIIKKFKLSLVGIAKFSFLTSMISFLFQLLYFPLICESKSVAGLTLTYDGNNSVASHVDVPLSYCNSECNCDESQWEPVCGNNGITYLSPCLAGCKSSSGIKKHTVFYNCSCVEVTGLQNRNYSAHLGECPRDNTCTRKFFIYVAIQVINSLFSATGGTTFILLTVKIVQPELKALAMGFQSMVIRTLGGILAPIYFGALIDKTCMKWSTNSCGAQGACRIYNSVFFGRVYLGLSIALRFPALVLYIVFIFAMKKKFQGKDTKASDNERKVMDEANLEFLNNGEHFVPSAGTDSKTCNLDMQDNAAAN
Method: Chinese Hamster Ovary (CHO) cells, either wild type or transfected with the genes encoding human OATP1B1 or OATP1B3, were maintained in Dulbecco's Modification of Eagle's Medium (DMEM) containing 1,000 mg/L D-glucose, L-glutamine, 25 mM HEPES buffer, and 110 mg/L sodium pyruvate, 1% Pen/Strep, 10% fetal bovine serum, 0.05 mg/mL L-proline and 0.5 mg/mL of geneticin G-418. Cells were maintained in incubators set at 37° C., 90% humidity and 5% CO2. OATP1B1 or OATP1B3 overexpressing CHO cells were seeded in BioCoat Poly-D-Lysine coated 96 well black cell culture plates with clear bottoms at a density of 1×10^5 cells/well. Sodium butyrate (10 mM) was added to the OATP1B1 and OATP1B3 cells to increase the protein expression level, and the cells were grown to confluence overnight. The assay buffer contained 142 mM NaCl, 5 mM KCl, 1 mM KH2PO4, 1.2 mM MgSO4, 1.5 mM CaCl2, 5 mM Glucose and 12.5 mM HEPES (pH 7.4). After removal of the media and before adding test compounds, the cells were washed twice with 37° C. assay buffer followed by a 0.5 h pre-incubation with assay buffer. Test compounds were serially diluted in DMSO at 250-fold of final test concentrations to create the compound spiking solutions. Compounds were then spiked into assay buffer containing 2 μM Fluo-3 and incubated with cells for 1 h. Following removal of assay buffer containing Fluo-3 and test compound, cells were washed 3 times with 200 μl of ice cold assay buffer and then lysed at room temperature for 15 minutes in a lysis buffer containing […] in a 1 mM CaCl2 solution. Substrate accumulations were determined for Fluo-3 fluorescence at an excitation of 485 nm and emission of 530 nm.
Percent inhibition was calculated according to the following equation: % inhibition=[1−{[OATP]i−[WT]ni}/{[OATP]ni−[WT]ni}]*100 where: [OATP]i represent the substrate accumulation in the presence of test compound for either OATP1B1, OATP1B3, or OATP2B1 cells; [OATP]ni represents the substrate accumulation in the absence of test compound for either OATP1B1, OATP1B3, or OATP2B1 cells, respectively; and [WT]ni represents the substrate accumulation in the absence of test compound for wild type cells or Mock cells, respectively. IC50 Determination in Transporter Assays
IC50 was determined according to the procedures described in Example 5. […] Results are reported as NIO (no interaction observed).

SMILES | % of Total Radioactivity in AUC Pooled Plasma [1] | % of Total Radioactivity in AUC Pooled Plasma [2] | % of administered dose in feces [3] | % of plasma AUC0-72 h of total radioactivity [3] | % of plasma AUC0-72 h of total radioactivity ([3]; listed as [^14C]Bictegravir) | % of plasma AUC0-72 h of total radioactivity ([3]; listed as [^14C]bictegravir) | % of administered dose in urine [3] | Maximum inhibition at highest test conc. (% of control) (OATP1B3; 100 µM) | IC50 (μM) (OATP1B3) | inhibition at 1 h, 100 µM (OATP1B3) | Maximum inhibition at highest test conc. (% of control) (OATP1B3)
O=C(NCc1c(F)cc(F)cc1F)c1cn2c(c(O)c1=O)C(=O)N1[C@H]3CC[C@H](C3)O[C@@H]1C2 [BIC, bictegravir, reference compound] | 76.5% | 80.2% | 30.6% | 67.9% | 67.9% | approximately 67.9% | 3.6% | – | – | – | –
O=C(NCc1c(F)cc(F)cc1F)c1cn2c(c(O[C@@H]3O[C@H](C(=O)O)[C@@H](O)[C@H](O)[C@H]3O)c1=O)C(=O)N1[C@H]3CC[C@H](C3)O[C@@H]1C2 [Metabolite M15] | – | 0.55% | – | 8.6% | – | – | 21.4% | minimal to no inhibition | NIO | 0% | –
O=C(NCc1c(F)cc(F)c(OS(=O)(=O)O)c1F)c1cn2c(c(O)c1=O)C(=O)N1C(C2)O[C@@H]2CC[C@H]1C2 (stereo partly shown) [Metabolite M20] | 11.3% | 0.77% | – | 20.1% | – | – | – | – | NIO | 18% | minimal to no inhibition
O=C(NCc1c(F)cc(F)c(O)c1F)c1cn2c(c(O)c1=O)C(=O)N1[C@H]3CC[C@H](C3)O[C@@H]1C2 [Metabolite M23] | 2.36% | – | 3.6% | 0.2^c % | – | – | – | – | NIO | 20% | minimal to no inhibition
